# Measurements from ChEMBL document CHEMBL5154747, “Discovery of new carbonic anhydrase IX inhibitors as anticancer agents by toning the hydrophobic and hydrophilic rims of the active site to encounter the dual-tail approach” (Eur J Med Chem, 2022).
# Legend:
# Type in all cases: functional
# [1] = tested on: SN12C; assay: Anticancer activity against human SN12C cells assessed as cell growth inhibition incubated for 48 hrs by SRB assay
# [2] = tested on: NCI-H226; assay: Anticancer activity against human NCI-H226 cells assessed as cell growth inhibition at 10 uM incubated for 48 hrs by SRB assay relative to control; details: read-out: GI
# [3] = tested on: OVCAR-4; assay: Anticancer activity against human OVCAR-4 cells assessed as cell growth inhibition incubated for 48 hrs by SRB assay
# [4] = tested on: A549; assay: Anticancer activity against human A549 cells assessed as cell growth inhibition incubated for 48 hrs by SRB assay
# [5] = tested on: ACHN; assay: Anticancer activity against human ACHN cells assessed as cell growth inhibition at 10 uM incubated for 48 hrs by SRB assay relative to control; details: read-out: GI
# [6] = tested on: SK-MEL-5; assay: Anticancer activity against human SK-MEL-5 cells assessed as cell growth inhibition incubated for 48 hrs by SRB assay
# [7] = tested on: SF-295; assay: Anticancer activity against human SF-295 cells assessed as cell growth inhibition at 10 uM incubated for 48 hrs by SRB assay relative to control; details: read-out: GI
# [8] = tested on: MDA-MB-435; assay: Anticancer activity against human MDA-MB-435 cells assessed as cell growth inhibition at 10 uM incubated for 48 hrs by SRB assay relative to control; details: read-out: GI
# [9] = tested on: NCI-H23; assay: Anticancer activity against human NCI-H23 cells assessed as cell growth inhibition incubated for 48 hrs by SRB assay; details: for CC50: read-out: LC50 (the source's name)
# [10] = tested on: HCC 2998; assay: Anticancer activity against human HCC 2998 cells assessed as cell growth inhibition at 10 uM incubated for 48 hrs by SRB assay relative to control; details: read-out: GI
# [11] = tested on: SW-620; assay: Anticancer activity against human SW-620 cells assessed as cell growth inhibition at 10 uM incubated for 48 hrs by SRB assay relative to control; details: read-out: GI
# [12] = tested on: HCT-15; assay: Anticancer activity against human HCT-15 cells assessed as cell growth inhibition incubated for 48 hrs by SRB assay; details: for CC50: read-out: LC50 (the source's name)
# [13] = tested on: IGROV-1; assay: Anticancer activity against human IGROV-1 cells assessed as cell growth inhibition at 10 uM incubated for 48 hrs by SRB assay relative to control; details: read-out: GI
# [14] = tested on: RPMI-8226; assay: Anticancer activity against human RPMI-8226 cells assessed as cell growth inhibition incubated for 48 hrs by SRB assay
# [15] = tested on: HCT-116; assay: Anticancer activity against human HCT-116 cells assessed as cell growth inhibition at 10 uM incubated for 48 hrs by SRB assay relative to control; details: read-out: GI
# [16] = tested on: DU-145; assay: Anticancer activity against human DU-145 cells assessed as cell growth inhibition at 10 uM incubated for 48 hrs by SRB assay relative to control; details: read-out: GI
# [17] = tested on: SK-OV-3; assay: Anticancer activity against human SK-OV-3 cells assessed as cell growth inhibition incubated for 48 hrs by SRB assay
# [18] = tested on: HCT-116; assay: Anticancer activity against human HCT-116 cells assessed as cell growth inhibition incubated for 48 hrs by SRB assay
# [19] = tested on: KM12; assay: Anticancer activity against human KM12 cells assessed as cell growth inhibition incubated for 48 hrs by SRB assay; details: for CC50: read-out: LC50 (the source's name)
# [20] = tested on: NCI/ADR-RES; assay: Anticancer activity against human NCI/ADR-RES cells assessed as cell growth inhibition at 10 uM incubated for 48 hrs by SRB assay relative to control; details: read-out: GI
# [21] = tested on: UACC-257; assay: Anticancer activity against human UACC-257 cells assessed as cell growth inhibition at 10 uM incubated for 48 hrs by SRB assay relative to control; details: read-out: GI
# [22] = tested on: NCI-H322M; assay: Anticancer activity against human NCI-H322M cells assessed as cell growth inhibition at 10 uM incubated for 48 hrs by SRB assay relative to control; details: read-out: GI
# [23] = tested on: NCI-H322M; assay: Anticancer activity against human NCI-H322M cells assessed as cell growth inhibition incubated for 48 hrs by SRB assay; details: for CC50: read-out: LC50 (the source's name)
# [24] = tested on: HCC 2998; assay: Anticancer activity against human HCC 2998 cells assessed as cell growth inhibition incubated for 48 hrs by SRB assay; details: for CC50: read-out: LC50 (the source's name)
# [25] = tested on: NCI/ADR-RES; assay: Anticancer activity against human NCI/ADR-RES cells assessed as cell growth inhibition incubated for 48 hrs by SRB assay; details: for CC50: read-out: LC50 (the source's name)
# [26] = tested on: HL-60(TB); assay: Anticancer activity against human HL-60(TB) cells assessed as cell growth inhibition at 10 uM incubated for 48 hrs by SRB assay relative to control; details: read-out: GI
# [27] = tested on: CAKI-1; assay: Anticancer activity against human CAKI-1 cells assessed as cell growth inhibition at 10 uM incubated for 48 hrs by SRB assay relative to control; details: read-out: GI
# [28] = tested on: SR; assay: Anticancer activity against human SR cells assessed as cell growth inhibition at 10 uM incubated for 48 hrs by SRB assay relative to control; details: read-out: GI
# [29] = tested on: MOLT-4; assay: Anticancer activity against human MOLT-4 cells assessed as cell growth inhibition incubated for 48 hrs by SRB assay; details: for CC50: read-out: LC50 (the source's name)
# [30] = tested on: EKVX; assay: Anticancer activity against human EKVX cells assessed as cell growth inhibition incubated for 48 hrs by SRB assay; details: for CC50: read-out: LC50 (the source's name)
# [31] = tested on: SK-OV-3; assay: Anticancer activity against human SK-OV-3 cells assessed as cell growth inhibition at 10 uM incubated for 48 hrs by SRB assay relative to control; details: read-out: GI
# [32] = tested on: Hs-578T; assay: Anticancer activity against human Hs-578T cells assessed as cell growth inhibition incubated for 48 hrs by SRB assay
# [33] = tested on: CCRF-CEM; assay: Anticancer activity against human CCRF-CEM cells assessed as cell growth inhibition at 10 uM incubated for 48 hrs by SRB assay relative to control; details: read-out: GI
# [34] = tested on: K562; assay: Anticancer activity against human K562 cells assessed as cell growth inhibition incubated for 48 hrs by SRB assay; details: for CC50: read-out: LC50 (the source's name)
# [35] = tested on: SK-MEL-28; assay: Anticancer activity against human SK-MEL-28 cells assessed as cell growth inhibition at 10 uM incubated for 48 hrs by SRB assay relative to control; details: read-out: GI
# [36] = tested on: UACC-62; assay: Anticancer activity against human UACC-62 cells assessed as cell growth inhibition at 10 uM incubated for 48 hrs by SRB assay relative to control; details: read-out: GI
# [37] = tested on: UACC-62; assay: Anticancer activity against human UACC-62 cells assessed as cell growth inhibition incubated for 48 hrs by SRB assay
# [38] = tested on: UO-31; assay: Anticancer activity against human UO-31 cells assessed as cell growth inhibition incubated for 48 hrs by SRB assay; details: for CC50: read-out: LC50 (the source's name)
# [39] = tested on: HOP-92; assay: Anticancer activity against human HOP-92 cells assessed as cell growth inhibition incubated for 48 hrs by SRB assay; details: for CC50: read-out: LC50 (the source's name)
# [40] = tested on: BT-549; assay: Anticancer activity against human BT-549 cells assessed as cell growth inhibition at 10 uM incubated for 48 hrs by SRB assay relative to control; details: read-out: GI
smiles,measurement,setting,value
Cc1nn(-c2ccccc2)cc1/C=N/Nc1nc(Nc2ccccc2)nc(Nc2ccc(S(N)(=O)=O)cc2)n1,GI50,[1],2940 nM
same,LC50,[1],> 100 µM
same,inhibition of growth at 10 µM,[2],159%
same,GI50,[3],2.55 µM
same,LC50 (concentration killing 50% of cells),[3],> 100 µM
same,GI50,[4],1850 nM
same,inhibition of growth at 10 µM,[5],100%
same,GI50,[6],1480 nM
same,LC50,[6],5.3 µM
same,inhibition of growth at 10 µM,[7],89%
same,inhibition of growth at 10 µM,[8],131%
same,GI50,[9],1740 nM
same,CC50,[9],7.5 µM
same,inhibition of growth at 10 µM,[10],117%
same,inhibition of growth at 10 µM,[11],114%
same,GI50,[12],2670 nM
same,CC50,[12],> 100 µM
same,inhibition of growth at 10 µM,[13],86%
same,GI50,[14],1660 nM
same,LC50 (concentration killing 50% of cells),[14],> 100 µM
same,inhibition of growth at 10 µM,[15],59%
same,inhibition of growth at 10 µM,[16],90%
same,GI50,[17],2.93 µM
same,LC50,[17],> 100 µM
same,GI50,[18],2000 nM
same,LC50 (concentration killing 50% of cells),[18],> 100 µM
same,GI50,[19],2840 nM
same,CC50,[19],> 100 µM
same,inhibition of growth at 10 µM,[20],23%
same,inhibition of growth at 10 µM,[21],44%
same,inhibition of growth at 10 µM,[22],90%
same,GI50,[23],2440 nM
same,CC50,[23],> 100 µM
same,GI50,[24],1880 nM
same,CC50,[24],7.01 µM
same,GI50,[25],> 100 µM
same,CC50,[25],> 100 µM
same,inhibition of growth at 10 µM,[26],96%
same,inhibition of growth at 10 µM,[27],127%
same,inhibition of growth at 10 µM,[28],66%
same,GI50,[29],2290 nM
same,CC50,[29],> 100 µM
same,GI50,[30],2000 nM
same,CC50,[30],35.1 µM
same,inhibition of growth at 10 µM,[31],49%
same,GI50,[32],2770 nM
same,LC50 (concentration killing 50% of cells),[32],> 100 µM
same,inhibition of growth at 10 µM,[33],91%
same,GI50,[34],2.63 µM
same,CC50,[34],> 100 µM
same,inhibition of growth at 10 µM,[35],113%
same,inhibition of growth at 10 µM,[36],127%
same,GI50,[37],1780 nM
same,LC50,[37],7.19 µM
same,GI50,[38],1720 nM
same,CC50,[38],7.27 µM
same,GI50,[39],2440 nM
same,CC50,[39],> 100 µM
same,inhibition of growth at 10 µM,[40],78%
NS(=O)(=O)c1ccc(Nc2nc(N/N=C/c3ccc(C(F)(F)F)cc3)nc(Nc3ccccc3)n2)cc1,GI50,[1],3000 nM
same,LC50,[1],86.6 µM
same,inhibition of growth at 10 µM,[2],63%
same,GI50,[3],3.69 µM
same,LC50 (concentration killing 50% of cells),[3],> 100 µM
same,GI50,[4],3110 nM
same,LC50,[4],87.2 µM
same,inhibition of growth at 10 µM,[5],60%
same,GI50,[6],1740 nM
same,LC50,[6],5.82 µM
same,inhibition of growth at 10 µM,[7],95%
same,inhibition of growth at 10 µM,[8],80%
same,GI50,[9],1950 nM
same,CC50,[9],9.25 µM
same,inhibition of growth at 10 µM,[10],46%
same,inhibition of growth at 10 µM,[11],45%
same,GI50,[12],2320 nM
same,CC50,[12],52 µM
same,inhibition of growth at 10 µM,[13],68%
same,GI50,[14],2770 nM
same,LC50 (concentration killing 50% of cells),[14],> 100 µM
same,inhibition of growth at 10 µM,[15],90%
same,inhibition of growth at 10 µM,[16],60%
same,GI50,[17],3.66 µM
same,LC50,[17],> 100 µM
same,GI50,[18],3100 nM
same,LC50 (concentration killing 50% of cells),[18],64 µM
same,GI50,[19],2380 nM
same,CC50,[19],24.8 µM
same,inhibition of growth at 10 µM,[20],12%
same,inhibition of growth at 10 µM,[21],60%
same,inhibition of growth at 10 µM,[22],47%
same,GI50,[23],3310 nM
same,CC50,[23],36.1 µM
same,GI50,[24],2970 nM
same,CC50,[24],46.4 µM
same,GI50,[25],12.3 µM
same,CC50,[25],> 100 µM
same,inhibition of growth at 10 µM,[26],51%
same,inhibition of growth at 10 µM,[27],66%
same,inhibition of growth at 10 µM,[28],92%
same,GI50,[29],3060 nM
same,CC50,[29],> 100 µM
same,GI50,[30],2620 nM
same,CC50,[30],40.3 µM
same,inhibition of growth at 10 µM,[31],44%
same,GI50,[32],3070 nM
same,LC50 (concentration killing 50% of cells),[32],> 100 µM
same,inhibition of growth at 10 µM,[33],88%
same,GI50,[34],3.51 µM
same,CC50,[34],> 100 µM
same,inhibition of growth at 10 µM,[35],72%
same,inhibition of growth at 10 µM,[36],85%
same,GI50,[37],2350 nM
same,LC50,[37],16.2 µM
same,GI50,[38],1880 nM
same,CC50,[38],15.7 µM
same,GI50,[39],2380 nM
same,CC50,[39],39.8 µM
same,inhibition of growth at 10 µM,[40],51%
